Values after ≈ are worked out from the molar mass of the structure shown.
What was measured:
Assay in all cases: Bacterial susceptibility testing, MIC by broth microdilution (CLSI)
Format in all cases: cell-based
P. aeruginosa ATCC27835 = conditions: Pseudomonas aeruginosa, 35° C., 18-24 h, read-out: MIC (μg/mL) P. aeruginosa ATCC27835
Protocol: (§1) Minimal inhibitory concentrations (MIC) were determined by the broth microdilution method in accordance with the Clinical and Laboratory Standards Institute (CLSI) guidelines. In brief, organism suspensions were adjusted to a final inoculum between 3×10^5 and 7×10^5 colony-forming units (CFU)/mL. Drug dilutions and inocula were made in sterile, cation adjusted Mueller-Hinton Broth (Beckton Dickinson). In wells, an inoculum volume of 100 μL was mixed to 2 μL of DMSO with 2-fold serial dilutions of drug. All inoculated microdilution trays were incubated in ambient air at 35° C. for 18-24 h. Following incubation, the lowest concentration of the drug that prevented visible growth (OD600 nm<0.05) was recorded as the MIC. Performance of the assay was monitored by the use of laboratory quality-control strains and compounds with defined MIC spectrum, in accordance with CLSI guidelines

K. pneumoniae ATCC13883 = conditions: Klebsiella pneumoniae, 35° C., 18-24 h, read-out: MIC (μg/mL) K. pneumoniae ATCC13883
Protocol: as §1

E. coli ATCC25922 = conditions: Escherichia coli, 35° C., 18-24 h, read-out: MIC (μg/mL) E. coli ATCC25922
Protocol: as §1

P. aeruginosa 209 PAO1 = conditions: Pseudomonas aeruginosa, 35° C., 18-24 h, read-out: MIC (μg/mL) P. aeruginosa 209 PAO1
Protocol: as §1

Row | SMILES | MIC (P. aeruginosa ATCC27835) [µg/mL] | MIC (K. pneumoniae ATCC13883) [µg/mL] | MIC (E. coli ATCC25922) [µg/mL] | MIC (P. aeruginosa 209 PAO1) [µg/mL]
1 | C[C@@H](O)c1nccn1[C@H](C#Cc1ccc(-c2ccc(OCC(N)CO)cc2)cc1)CO (mixture of isomers) [Compound 1, (2R)-4-(4′-(2-amino-3-hydroxypropoxy)-[1,1′-biphenyl]-4-yl)-2-(2-((R)-1-hydroxyethyl)-1H-imidazol-1-yl)but-3-yn-1-ol] | 1 (≈ 2.37 µM) | 32 (≈ 75.9 µM) | 8 (≈ 19 µM) | 1 (≈ 2.37 µM)
2 | C[C@H](O)c1nccn1[C@@H](C#Cc1ccc(-c2ccc(O[C@@H]3C[C@H]3N)cc2)cc1)CO (racemic) [Compound 4, (S)-4-(4′-((trans)-2-aminocyclopropoxy)-[1,1′-biphenyl]-4-yl)-2-(2-((S)-1-hydroxyethyl)-1H-imidazol-1-yl)but-3-yn-1-ol] | 2 (≈ 4.96 µM) | 0.5 (≈ 1.24 µM) | 0.25 (≈ 0.62 µM) | 2 (≈ 4.96 µM)
3 | C[C@H](O)c1nccn1[C@@H](C#Cc1ccc(-c2ccc(C(O)CO)cc2)cc1)CO (mixture of isomers) [Compound 5, 1-(4′-((S)-4-hydroxy-3-(2-((S)-1-hydroxyethyl)-1H-imidazol-1-yl)but-1-yn-1-yl)-[1,1′-biphenyl]-4-yl)ethane-1,2-diol] | 4 (≈ 10.2 µM) | 16 (≈ 40.8 µM) | 8 (≈ 20.4 µM) | 4 (≈ 10.2 µM)
4 | C[C@H](O)c1nccn1[C@@H](C#Cc1ccc(-c2ccc(COCC(N)CO)cc2)cc1)CO (mixture of isomers) [Compound 6, (2S)-4-(4′-((2-amino-3-hydroxypropoxy)methyl)-[1,1′-biphenyl]-4-yl)-2-(2-((S)-1-hydroxyethyl)-1H-imidazol-1-yl)but-3-yn-1-ol] | 4 (≈ 9.18 µM) | 32 (≈ 73.5 µM) | 16 (≈ 36.7 µM) | 2 (≈ 4.59 µM)
5 | C[C@H](O)c1nccn1[C@@H](C#Cc1ccc(-c2ccc(O[C@H]3COC[C@@H]3O)cc2)cc1)CO (racemic) [Compound 46, (cis)-4-((4′-((S)-4-hydroxy-3-(2-((S)-1-hydroxyethyl)-1H-imidazol-1-yl)but-1-yn-1-yl)-[1,1′-biphenyl]-4-yl)oxy)tetrahydrofuran-3-ol] | 2 (≈ 4.6 µM) | 2 (≈ 4.6 µM) | 1 (≈ 2.3 µM) | 1 (≈ 2.3 µM)
6 | C[C@H](O)c1nccn1[C@H](C#Cc1ccc(-c2ccc(OC[C@@H](N)CO)cc2)cc1)CO [Compound 2, (R)-4-(4′-((S)-2-amino-3-hydroxypropoxy)-[1,1′-biphenyl]-4-yl)-2-(2-((S)-1-hydroxyethyl)-1H-imidazol-1-yl)but-3-yn-1-ol] | 2 (≈ 4.74 µM) | 16 (≈ 38 µM) | 8 (≈ 19 µM) | 2 (≈ 4.74 µM)
7 | C[C@H](O)c1nccn1CC#Cc1ccc(-c2ccc(C3CC(NCC(=N)N)C3)cc2)cc1 (stereo partly drawn) [Compound 25, (S)-2-((3-(4′-(3-(2-(1-hydroxyethyl)-1H-imidazol-1-yl)prop-1-yn-1-yl)-[1,1′-biphenyl]-4-yl)cyclobutyl)amino)acetimidamide] | 4 (≈ 9.36 µM) | 0.5 (≈ 1.17 µM) |  | 2 (≈ 4.68 µM)
8 | C[C@H](O)c1nccn1CC#Cc1ccc(-c2ccc(C3CC(NCC(=O)O)C3)cc2)cc1 (stereo partly drawn) [Compound 26, (S)-(3-(4′-(3-(2-(1-hydroxyethyl)-1H-imidazol-1-yl)prop-1-yn-1-yl)-[1,1′-biphenyl]-4-yl)cyclobutyl)glycine] | 4 (≈ 9.31 µM) | 4 (≈ 9.31 µM) |  | 4 (≈ 9.31 µM)
9 | C[C@H](O)c1nccn1CC#Cc1ccc(-c2ccc(C3CC(NCc4cocn4)C3)cc2)cc1 (stereo partly drawn) [Compound 27, (S)-1-(1-(3-(4′-(3-((oxazol-4-ylmethyl)amino)cyclobutyl)-[1,1′-biphenyl]-4-yl)prop-2-yn-1-yl)-1H-imidazol-2-yl)ethan-1-ol] | 4 (≈ 8.84 µM) | 0.5 (≈ 1.1 µM) |  | 2 (≈ 4.42 µM)
10 | C[C@H](O)c1nccn1[C@@H](C#Cc1ccc(-c2ccc(C3CC(NCC#N)C3)cc2)cc1)CO (stereo partly drawn) [Compound 28, 2-((3-(4′-((S)-4-hydroxy-3-(2-((S)-1-hydroxyethyl)-1H-imidazol-1-yl)but-1-yn-1-yl)-[1,1′-biphenyl]-4-yl)cyclobutyl)amino)acetonitrile] | 4 (≈ 9.08 µM) | 0.5 (≈ 1.13 µM) |  | 2 (≈ 4.54 µM)
11 | C[C@H](O)c1nccn1[C@@H](C#Cc1ccc(-c2ccc(C3CC(NCc4ncon4)C3)cc2)cc1)CO (stereo partly drawn) [Compound 29, (S)-4-(4′-(3-(((1,2,4-oxadiazol-3-yl)methyl)amino)cyclobutyl)-[1,1′-biphenyl]-4-yl)-2-(2-((S)-1-hydroxyethyl)-1H-imidazol-1-yl)but-3-yn-1-ol] | 2 (≈ 4.14 µM) | 0.5 (≈ 1.03 µM) |  | 2 (≈ 4.14 µM)
12 | C[C@H](O)c1nccn1[C@@H](C#Cc1ccc(-c2ccc(C3CC(O)C3)cc2)cc1)CO (stereo partly drawn) [Compound 30, 3-(4′-((S)-4-hydroxy-3-(2-((S)-1-hydroxyethyl)-1H-imidazol-1-yl)but-1-yn-1-yl)-[1,1′-biphenyl]-4-yl)cyclobutan-1-ol] | 2 (≈ 4.97 µM) | 0.5 (≈ 1.24 µM) |  | 0.5 (≈ 1.24 µM)
13 | C[C@H](O)c1nccn1[C@@H](C#Cc1ccc(-c2ccc(C3CC(NCC(F)F)C3)cc2)cc1)CO (stereo partly drawn) [Compound 31, (S)-4-(4′-(3-((2,2-difluoroethyl)amino)cyclobutyl)-[1,1′-biphenyl]-4-yl)-2-(2-((S)-1-hydroxyethyl)-1H-imidazol-1-yl)but-3-yn-1-ol] | 4 (≈ 8.59 µM) | 0.25 (≈ 0.537 µM) |  | 2 (≈ 4.3 µM)
14 | C[C@H](O)c1nccn1[C@@H](C#Cc1ccc(-c2ccc(C3CC(NCCC#N)C3)cc2)cc1)CO (stereo partly drawn) [Compound 32, 3-((3-(4′-((S)-4-hydroxy-3-(2-((S)-1-hydroxyethyl)-1H-imidazol-1-yl)but-1-yn-1-yl)-[1,1′-biphenyl]-4-yl)cyclobutyl)amino)propanenitrile] | 4 (≈ 8.8 µM) | 0.5 (≈ 1.1 µM) |  | 1 (≈ 2.2 µM)
15 | C[C@H](O)c1nccn1[C@@H](C#Cc1ccc(-c2ccc(C3CC(NC(C#N)CO)C3)cc2)cc1)CO (stereo partly drawn) [Compound 33, 3-hydroxy-2-((3-(4′-((S)-4-hydroxy-3-(2-((S)-1-hydroxyethyl)-1H-imidazol-1-yl)but-1-yn-1-yl)-[1,1′-biphenyl]-4-yl)cyclobutyl)amino)propanenitrile] | 2 (≈ 4.25 µM) | 4 (≈ 8.5 µM) |  | 2 (≈ 4.25 µM)
16 | C[C@H](O)c1nccn1[C@@H](C#Cc1ccc(-c2ccc(C3CC(NCC(F)(F)CO)C3)cc2)cc1)CO (stereo partly drawn) [Compound 34, (S)-4-(4′-(3-((2,2-difluoro-3-hydroxypropyl)amino)cyclobutyl)-[1,1′-biphenyl]-4-yl)-2-(2-((S)-1-hydroxyethyl)-1H-imidazol-1-yl)but-3-yn-1-ol] | 4 (≈ 8.07 µM) | 2 (≈ 4.04 µM) | 0.5 (≈ 1.01 µM) | 2 (≈ 4.04 µM)
17 | C[C@H](O)c1nccn1[C@@H](C#Cc1ccc(-c2ccc(C3CC(NCc4noc(C(N)=O)n4)C3)cc2)cc1)CO (stereo partly drawn) [Compound 35, 3-(((3-(4′-((S)-4-hydroxy-3-(2-((S)-1-hydroxyethyl)-1H-imidazol-1-yl)but-1-yn-1-yl)-[1,1′-biphenyl]-4-yl)cyclobutyl)amino)methyl)-1,2,4-oxadiazole-5-carboxamide] | 4 (≈ 7.6 µM) | 2 (≈ 3.8 µM) | 0.5 (≈ 0.949 µM) | 4 (≈ 7.6 µM)
18 | C[C@H](O)c1nccn1[C@@H](C#Cc1ccc(-c2ccc([C@H]3C[C@H](NS(C)(=O)=O)C3)cc2)cc1)CO [Compound 36, N-((1S,3r)-3-(4′-((S)-4-hydroxy-3-(2-((S)-1-hydroxyethyl)-1H-imidazol-1-yl)but-1-yn-1-yl)-[1,1′-biphenyl]-4-yl)cyclobutyl)methanesulfonamide] | 2 (≈ 4.17 µM) | 1 (≈ 2.09 µM) | 0.25 (≈ 0.521 µM) | 1 (≈ 2.09 µM)
19 | CC(CNC1CC(c2ccc(-c3ccc(C#C[C@@H](CO)n4ccnc4[C@H](C)O)cc3)cc2)C1)C(=O)O (stereo partly drawn) [Compound 37, 3-((3-(4′-((S)-4-hydroxy-3-(2-((S)-1-hydroxyethyl)-1H-imidazol-1-yl)but-1-yn-1-yl)-[1,1′-biphenyl]-4-yl)cyclobutyl)amino)-2-methylpropanoic acid] | 4 (≈ 8.2 µM) | 8 (≈ 16.4 µM) | 2 (≈ 4.1 µM) | 4 (≈ 8.2 µM)
20 | C[C@H](O)c1nccn1[C@@H](C#Cc1ccc(-c2ccc(C3CC(N[C@H]4COC[C@@H]4O)C3)cc2)cc1)CO (stereo partly drawn) [Compound 38, (3R,4S)-4-((3-(4′-((S)-4-hydroxy-3-(2-((S)-1-hydroxyethyl)-1H-imidazol-1-yl)but-1-yn-1-yl)-[1,1′-biphenyl]-4-yl)cyclobutyl)amino)tetrahydrofuran-3-ol] | 4 (≈ 8.2 µM) | 8 (≈ 16.4 µM) | 2 (≈ 4.1 µM) | 4 (≈ 8.2 µM)
21 | C[C@H](O)c1nccn1[C@@H](C#Cc1ccc(-c2ccc(C3CC(NC4C(O)OC(CO)C(O)C4O)C3)cc2)cc1)CO (stereo partly drawn) [Compound 39, 3-((3-(4′-((S)-4-hydroxy-3-(2-((S)-1-hydroxyethyl)-1H-imidazol-1-yl)but-1-yn-1-yl)-[1,1′-biphenyl]-4-yl)cyclobutyl)amino)-6-(hydroxymethyl)tetrahydro-2H-pyran-2,4,5-triol] | 8 (≈ 14.2 µM) | 32 (≈ 56.8 µM) | 8 (≈ 14.2 µM) | 4 (≈ 7.1 µM)
22 | C[C@H](O)c1nccn1[C@@H](C#Cc1ccc(-c2ccc(C3CC(NC(=O)CC#N)C3)cc2)cc1)CO (stereo partly drawn) [Compound 40, 2-cyano-N-(3-(4′-((S)-4-hydroxy-3-(2-((S)-1-hydroxyethyl)-1H-imidazol-1-yl)but-1-yn-1-yl)-[1,1′-biphenyl]-4-yl)cyclobutyl)acetamide] | 2 (≈ 4.27 µM) | 2 (≈ 4.27 µM) | 0.5 (≈ 1.07 µM) | 4 (≈ 8.54 µM)

From patent US20240166609A1, “ANTIBACTERIAL COMPOUNDS” (BLACKSMITH MEDICINES, INC., priority 2021, published 2024)
